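Step 1: Grow cells in 96-well plates. Step 2: Expose to compound for 48 hours at 5 concentrations. Step 3: Interpolate endpoints linearly; if unreached, use highest concentration. GI50: concentration for 50% inhibition of growth. TGI: total growth inhibition.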
Experiments:
Assay in all cases: NCI anticancer screen, dose series, 48 h
786-0 renal = test system: 786-0 renal
ACHN renal = test system: ACHN renal
HCC-2998 colon = test system: HCC-2998 colon
HL-60(TB) leukemia = test system: HL-60(TB) leukemia
HS 578T breast = test system: HS 578T breast
MOLT-4 leukemia = test system: MOLT-4 leukemia
T-47D breast = test system: T-47D breast
A549 NSCLC = test system: A549 NSCLC
HT29 colon = test system: HT29 colon
OVCAR-8 ovarian = test system: OVCAR-8 ovarian

Row | Structure (SMILES) | GI50 (786-0 renal) [µM] | TGI (786-0 renal) [µM] | GI50 (ACHN renal) [µM] | TGI (ACHN renal) [µM] | GI50 (HCC-2998 colon) [µM] | TGI (HCC-2998 colon) [µM] | GI50 (HL-60(TB) leukemia) [µM] | TGI (HL-60(TB) leukemia) [µM] | GI50 (HS 578T breast) [µM] | TGI (HS 578T breast) [µM] | GI50 (MOLT-4 leukemia) [µM] | TGI (MOLT-4 leukemia) [µM] | GI50 (T-47D breast) [µM] | TGI (T-47D breast) [µM] | GI50 (A549 NSCLC) [µM] | TGI (A549 NSCLC) [µM] | GI50 (HT29 colon) [µM] | TGI (HT29 colon) [µM] | GI50 (OVCAR-8 ovarian) [µM] | TGI (OVCAR-8 ovarian) [µM]
1 | Oc1[nH]c2ccc(Cl)cc2c1/C=c1/ccc2c(c1)N=C(c1cc(F)cc(F)c1)N=2 | 3.66 | > 100 | 7.42 | > 100 | 7.55 | > 100 | 3.39 | 7.23 | 2.9 | > 100 | 3.32 | > 100 | 4.47 | > 100 |  |  |  |  |  | 
2 | C[C@@H](Oc1cc(-c2cnn(C3CC4(CCCNC4)C3)c2)cnc1N)c1c(Cl)ccc(F)c1Cl (some centres not stated) | 1.64 | 3.19 | 1.57 | 4.49 | 1.51 | 3.14 | 1.16 | 3.01 | 1.63 | 4.47 | 1.22 | 5.46 | 1.61 | 3.42 | 1.22 | 4.12 | 0.607 | 2.3 | 2.06 | 5.93
3 | N#CC[C@H](C1CCCC1)n1cc(-c2ncnc3[nH]ccc23)cn1 | 12.9 | > 91.3 | 23.3 | > 100 | 20.6 | > 91.7 | 22.7 | 60.6 | 5.19 | 69.9 | 20.7 | > 78.8 | 23.8 | > 91.1 | 30.1 | > 100 | 19.7 | 41.5 | 30.3 | > 100
4 | O=C(/C=C/c1cccc(B(O)O)c1)c1cccc(B(O)O)c1 | 1.75 | 3.71 | 2.14 | 4.33 | 1.8 | 3.2 | 2.17 | 6.33 | 3.89 | 54.8 | 2.1 | 5.96 | 2.31 | 9.58 | 2.12 | 5.81 | 1.68 | 3.17 | 2.19 | 7.23
5 | CCN1C(=O)N(CC)C2C1NN=c1s/c(=C\c3ccccc3)c(=O)n12 (configuration not stated) | 0.874 | > 100 | 0.199 | > 100 | 0.282 | > 100 | 0.198 | 0.64 | 0.146 | > 100 | 0.42 | > 100 | 0.519 | > 100 | 0.305 | > 100 | 0.0989 | > 42.2 | 0.426 | > 100
6 | CC(C)N(C[C@H]1O[C@@H](n2cnc3c(N)ncnc32)[C@H](O)[C@@H]1O)C1CC(CCc2nc3ccc(C(C)(C)C)cc3[nH]2)C1 (some centres not stated) | > 100 | > 100 | > 100 | > 100 | > 100 | > 100 | > 65.9 | > 100 | > 76.5 | > 100 | 30.9 | > 81.3 | 68.5 | > 100 | > 100 | > 100 | 94.8 | > 100 | > 100 | > 100
7 | Cc1c(N2C(=O)/C(=C\c3ccc(N(C)C)cc3)N=C2c2ccccc2)c(=O)n(-c2ccccc2)n1C | > 100 | > 100 | > 100 | > 100 | > 100 | > 100 | 40.2 | > 100 | > 100 | > 100 | 7.85 | > 100 | 19.3 | > 87.2 | 79.1 | > 100 | 49.5 | > 100 | 83.9 | > 100
8 | Nc1cccc2nsnc12 |  | > 100 |  | > 100 |  | > 100 |  | 26.7 |  | > 100 |  | > 54.5 |  | > 100 |  | > 100 |  | > 100 |  | > 100
9 | CN1CCN(c2ccc3nc4c(nc3c2C(F)(F)F)C(=O)c2ncccc2C4=O)CC1 | 2.02 | 4.9 |  |  | 1.21 | 2.63 | 1.6 | 5.92 | 1.91 | 5.38 | 2.28 | 5.52 | 1.96 | 4.62 | 1.21 | 3.92 | 2.32 | 6.18 | 1.97 | 8.96
10 | COc1ccc(C2C3=C(COC3=O)N(CCO)c3cc4c(cc32)OCCO4)cc1OC (configuration not stated) | 2.48 | > 50 | > 50 | > 50 | 1.76 | 8.67 | 1.28 | 5.65 | 1.44 | > 50 | 2.85 | > 47.4 | 2.17 | > 50 | 5.11 | > 50 | 1.64 | > 14.9 | 4.46 | > 50
11 | O=C(Nc1ccc(S(=O)(=O)NC2CCCCCC2)cc1)C(c1ccccc1)S(=O)(=O)c1ccc(F)cc1 (configuration not stated) | 0.448 | 2.68 | 0.153 | 0.491 | 0.868 | 2.35 | 0.357 | 2.51 | 0.588 | 3.05 | 0.432 | > 100 | 0.717 | 4.83 | 0.854 | 2.9 | 0.214 | 1.56 | 0.702 | 4.68
12 | COc1ccc(NC(=O)O[C@H]2[C@H](O[C@H]3[C@@H](O)COC(O[C@H]4C[C@H]5[C@@H]6CC=C7C[C@@H](O)CC[C@]7(C)[C@H]6CC[C@]5(C)[C@H]4[C@H](C)C(=O)CCC(C)C)[C@@H]3OC(C)=O)OC[C@@H](O)[C@@H]2O)cc1 (some centres not stated) | < 0.01 | 11.3 | 0.118 | > 100 | 0.566 | 32.7 | 0.0139 | 28.2 | < 0.01 | 0.0116 | < 0.01 | 0.34 | < 0.01 | 14.7 | < 0.01 | 20.5 | 0.0242 | 15.5 | 7.75 | > 100
13 | COc1ccc(-n2sc(=O)n(Cc3ccc(COC(=O)C(C)c4ccc(CC(C)C)cc4)cc3)c2=O)cc1 (configuration not stated) | 6.13 | 12.9 | 0.996 | 2.05 | 7.99 | 17.2 | 1.23 | 4.89 | 4.77 | 13.8 | 1.21 | 3.89 | 1.32 | 5.54 | 9.56 | 25.9 | 2.12 | 16.1 | 2.81 | 21.5
